Laboratory results as given in ChEMBL document CHEMBL4507327 (2021).
pIC50: −log10 of the molar value.

Assays:
[1] = biological target: Tyrosine-protein kinase Fer (Homo sapiens, UniProt P16591); assay: Fer(FER1LGY1) Takeda global kinase panel
[2] = biological target: Macrophage colony-stimulating factor 1 receptor (Homo sapiens, UniProt P07333); assay: FmS [CSFR(CSF1LGC1)] Takeda global kinase panel
Ephrin type-A receptor 5 = Ephrin type-A receptor 5 (Homo sapiens, UniProt P54756); assay: EphA5(EPA5MGF1) Takeda global kinase panel
[3] = biological target: Gamma-aminobutyric acid type B receptor subunit 1 (Homo sapiens) (UniProt Q9UBS5); assay: Inhibition of GABAB1A at compound concentration of 10.0 uM in the Eurofins-Panlabs radioligand binding assay (Eurofins_assay_228610); set-up: ligand concentration 4 nM; conditions: Compound concentration 10.0 uM
[4] = biological target: Homeodomain-interacting protein kinase 4 (Homo sapiens, UniProt Q8NE63); assay: HIPK4(HIP4LHY1) Takeda global kinase panel
[5] = biological target: Serine/threonine-protein kinase 32C (Homo sapiens, UniProt Q86UX6); assay: YANK3(S32CLGI1) Takeda global kinase panel
[6] = biological target: G protein-coupled receptor kinase 5 (Homo sapiens, UniProt P34947); assay: GRK5(GRK5LGP1) Takeda global kinase panel
[7] = biological target: Non-receptor tyrosine-protein kinase TNK1 (Homo sapiens, UniProt Q13470); assay: Tnk1(TNK1LGY1) Takeda global kinase panel
[8] = biological target: T1, Muscarinic acetylcholine receptor M2 (Homo sapiens) (UniProt P08172); conditions: Compound concentration 10.0 uM
T1 sequence (whole entry): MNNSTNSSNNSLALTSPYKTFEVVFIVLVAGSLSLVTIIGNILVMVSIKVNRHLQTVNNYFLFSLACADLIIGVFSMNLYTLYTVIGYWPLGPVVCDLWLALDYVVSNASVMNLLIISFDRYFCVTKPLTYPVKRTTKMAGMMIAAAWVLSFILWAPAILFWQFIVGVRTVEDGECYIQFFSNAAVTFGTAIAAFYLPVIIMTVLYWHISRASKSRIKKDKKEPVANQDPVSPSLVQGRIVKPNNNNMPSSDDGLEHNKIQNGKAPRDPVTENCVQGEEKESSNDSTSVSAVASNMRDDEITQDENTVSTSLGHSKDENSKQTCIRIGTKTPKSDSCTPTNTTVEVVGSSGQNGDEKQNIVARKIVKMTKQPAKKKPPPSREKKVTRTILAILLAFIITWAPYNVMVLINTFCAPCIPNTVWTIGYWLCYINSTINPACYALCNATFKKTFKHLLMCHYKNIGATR

[9] = biological target: PAS domain-containing serine/threonine-protein kinase (Homo sapiens, UniProt Q96RG2); assay: PASK(PASKPHY1) Takeda global kinase panel
[10] = biological target: Serine/threonine-protein kinase PLK4 (Homo sapiens, UniProt O00444); assay: PLK4(PLK4LGF1) Takeda global kinase panel
[11] = biological target: Mitogen-activated protein kinase 12 (Homo sapiens, UniProt P53778); assay: p38gamma(MP12LGP1) Takeda global kinase panel
[12] = biological target: Serine/threonine-protein kinase D1 (Homo sapiens, UniProt Q15139); assay: PKD1(PRD1LHY1) Takeda global kinase panel
[13] = biological target: Tyrosine-protein kinase FRK (Homo sapiens, UniProt P42685); assay: FRK(FRK1LGF1) Takeda global kinase panel
[14] = biological target: Leukocyte tyrosine kinase receptor (Homo sapiens, UniProt P29376); assay: LTK(LTK1LGF1) Takeda global kinase panel
[15] = biological target: Serine/threonine-protein kinase 32B (Homo sapiens, UniProt Q9NY57); assay: YANK2(S32BLGY2) Takeda global kinase panel
[16] = biological target: Serine/threonine-protein kinase PLK1 (Homo sapiens, UniProt P53350); assay: PLK1(PLK1LGY1) Takeda global kinase panel
[17] = biological target: High affinity nerve growth factor receptor (Homo sapiens, UniProt P04629); assay: TRKA(NTR1LGN1) Takeda global kinase panel
[18] = biological target: Mitogen-activated protein kinase kinase kinase 11 (Homo sapiens, UniProt Q16584); assay: MLK3(M311LGF1) Takeda global kinase panel
[19] = biological target: RAC-beta serine/threonine-protein kinase (Homo sapiens, UniProt P31751); assay: Akt2 [PKBbeta(AKT2CGY1)] Takeda global kinase panel
[20] = biological target: Tyrosine-protein kinase Fgr (Homo sapiens, UniProt P09769); assay: Fgr(FGR1LGF1) Takeda global kinase panel
[21] = biological target: Cyclin-dependent kinase 8 (Homo sapiens, UniProt P49336); assay: CDK8(CDK8CGS1) Takeda global kinase panel
[22] = biological target: Serine/threonine-protein kinase 3 (Homo sapiens, UniProt Q13188); assay: MST2(STK3LGF1) Takeda global kinase panel
[23] = biological target: Microtubule-associated serine/threonine-protein kinase 3 (Homo sapiens, UniProt O60307); assay: MAST3(MAS3LGE1) Takeda global kinase panel
[24] = biological target: Tyrosine-protein kinase Fes/Fps (Homo sapiens, UniProt P07332); assay: Fes(FES1LHY1) Takeda global kinase panel
[25] = biological target: Ribosomal protein S6 kinase alpha-5 (Homo sapiens, UniProt O75582); assay: MSK1(R6A5LGY1) Takeda global kinase panel
[26] = biological target: Serine/threonine-protein kinase PINK1, mitochondrial (Homo sapiens, UniProt Q9BXM7); assay: PINK1(PIN1PHRE) Takeda global kinase panel
[27] = biological target: Homeodomain-interacting protein kinase 2 (Homo sapiens, UniProt Q9H2X6); assay: HIPK2(HIP2LGY1) Takeda global kinase panel
[28] = biological target: Cyclin-dependent kinase 11A (Homo sapiens, UniProt Q9UQ88); assay: CDK11A(C11ALGS1) Takeda global kinase panel
[29] = biological target: Glutamate receptor ionotropic, kainate (Rattus norvegicus) (UniProt P22756+Q01812+P42260+P42264+Q63273); conditions: Compound concentration 10.0 uM
[30] = biological target: Tyrosine-protein kinase ITK/TSK (Homo sapiens, UniProt Q08881); assay: ITK(ITK1CGF1) Takeda global kinase panel
[31] = biological target: Serine/threonine-protein kinase pim-3 (Homo sapiens, UniProt Q86V86); assay: Pim3(PIM3LGP1) Takeda global kinase panel
Insulin receptor = Insulin receptor (Homo sapiens, UniProt P06213); assay: InSR(INSRLGY1) Takeda global kinase panel
[32] = biological target: Serine/threonine-protein kinase greatwall (Homo sapiens, UniProt Q96GX5); assay: MASTL(MASLLGE1) Takeda global kinase panel
[33] = biological target: D(1B) dopamine receptor (Homo sapiens) (UniProt P21918); assay: Dopamine D5 Eurofins-Panlabs radioligand binding assay; conditions: Compound concentration 10.0 uM
[34] = biological target: Mitotic checkpoint serine/threonine-protein kinase BUB1 (Homo sapiens, UniProt O43683); assay: Bub1(BUB1LGRL) Takeda global kinase panel
[35] = biological target: Mitogen-activated protein kinase kinase kinase 12 (Homo sapiens, UniProt Q12852); assay: DLK(M312CGY1) Takeda global kinase panel
[36] = biological target: D(3) dopamine receptor (Homo sapiens) (UniProt P35462); conditions: Compound concentration 10.0 uM
[37] = biological target: Cytoplasmic tyrosine-protein kinase BMX (Homo sapiens, UniProt P51813); assay: Etk [BMX(BMX1CGF1)] Takeda global kinase panel

Chain of Mitogen-activated protein kinase 12 (P53778 whole entry): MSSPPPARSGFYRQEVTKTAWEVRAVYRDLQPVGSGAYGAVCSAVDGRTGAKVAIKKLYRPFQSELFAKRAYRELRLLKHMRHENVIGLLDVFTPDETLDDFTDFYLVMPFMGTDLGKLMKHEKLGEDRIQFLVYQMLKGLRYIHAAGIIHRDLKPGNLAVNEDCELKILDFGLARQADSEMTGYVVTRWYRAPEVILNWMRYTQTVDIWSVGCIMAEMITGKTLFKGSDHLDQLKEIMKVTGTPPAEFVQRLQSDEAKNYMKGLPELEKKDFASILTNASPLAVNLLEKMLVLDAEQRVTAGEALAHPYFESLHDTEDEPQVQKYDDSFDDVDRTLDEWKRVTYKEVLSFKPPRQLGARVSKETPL
Chain of High affinity nerve growth factor receptor (P04629 whole entry): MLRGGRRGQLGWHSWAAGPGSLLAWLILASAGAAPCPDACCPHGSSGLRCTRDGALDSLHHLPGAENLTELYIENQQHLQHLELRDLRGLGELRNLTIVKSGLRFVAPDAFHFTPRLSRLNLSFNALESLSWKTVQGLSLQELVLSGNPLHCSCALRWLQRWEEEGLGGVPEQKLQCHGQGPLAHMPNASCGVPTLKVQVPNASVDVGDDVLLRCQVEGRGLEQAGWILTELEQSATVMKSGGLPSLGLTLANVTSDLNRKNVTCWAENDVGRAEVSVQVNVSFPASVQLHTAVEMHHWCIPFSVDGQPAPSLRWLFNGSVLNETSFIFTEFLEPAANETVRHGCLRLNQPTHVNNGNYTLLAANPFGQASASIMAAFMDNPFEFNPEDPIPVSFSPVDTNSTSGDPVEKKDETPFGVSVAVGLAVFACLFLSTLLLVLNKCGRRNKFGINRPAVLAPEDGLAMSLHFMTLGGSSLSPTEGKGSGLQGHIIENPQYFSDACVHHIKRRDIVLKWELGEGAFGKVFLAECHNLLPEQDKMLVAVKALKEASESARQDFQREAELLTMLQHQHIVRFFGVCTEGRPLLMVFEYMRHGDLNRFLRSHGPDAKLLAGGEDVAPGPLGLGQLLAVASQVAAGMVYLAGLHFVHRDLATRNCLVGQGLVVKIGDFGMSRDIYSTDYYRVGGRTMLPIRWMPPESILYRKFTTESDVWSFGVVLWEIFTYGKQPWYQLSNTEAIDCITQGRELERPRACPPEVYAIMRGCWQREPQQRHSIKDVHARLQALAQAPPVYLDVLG
Chain of Tyrosine-protein kinase Fer (P16591 whole entry): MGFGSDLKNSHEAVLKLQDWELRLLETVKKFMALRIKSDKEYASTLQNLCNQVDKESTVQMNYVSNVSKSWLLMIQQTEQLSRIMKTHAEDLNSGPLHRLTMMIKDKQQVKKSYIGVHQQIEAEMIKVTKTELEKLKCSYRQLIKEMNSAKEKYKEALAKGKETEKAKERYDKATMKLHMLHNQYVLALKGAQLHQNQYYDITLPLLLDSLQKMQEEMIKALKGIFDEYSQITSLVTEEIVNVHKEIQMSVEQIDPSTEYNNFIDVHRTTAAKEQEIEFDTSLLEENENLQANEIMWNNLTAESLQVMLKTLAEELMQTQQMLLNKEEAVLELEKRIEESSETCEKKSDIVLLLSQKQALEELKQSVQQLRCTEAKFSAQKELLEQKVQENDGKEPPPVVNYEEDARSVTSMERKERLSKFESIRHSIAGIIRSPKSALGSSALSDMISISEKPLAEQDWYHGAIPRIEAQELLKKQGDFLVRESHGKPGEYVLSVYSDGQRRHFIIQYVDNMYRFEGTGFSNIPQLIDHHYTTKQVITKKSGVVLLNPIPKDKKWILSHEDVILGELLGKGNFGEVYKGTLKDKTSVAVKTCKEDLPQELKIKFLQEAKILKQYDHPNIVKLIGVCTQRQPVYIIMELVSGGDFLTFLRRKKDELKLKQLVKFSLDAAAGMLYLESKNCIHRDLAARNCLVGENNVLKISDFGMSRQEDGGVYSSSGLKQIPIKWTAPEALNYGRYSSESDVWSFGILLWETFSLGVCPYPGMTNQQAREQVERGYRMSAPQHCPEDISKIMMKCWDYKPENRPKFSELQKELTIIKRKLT
Chain of Ribosomal protein S6 kinase alpha-5 (O75582 whole entry): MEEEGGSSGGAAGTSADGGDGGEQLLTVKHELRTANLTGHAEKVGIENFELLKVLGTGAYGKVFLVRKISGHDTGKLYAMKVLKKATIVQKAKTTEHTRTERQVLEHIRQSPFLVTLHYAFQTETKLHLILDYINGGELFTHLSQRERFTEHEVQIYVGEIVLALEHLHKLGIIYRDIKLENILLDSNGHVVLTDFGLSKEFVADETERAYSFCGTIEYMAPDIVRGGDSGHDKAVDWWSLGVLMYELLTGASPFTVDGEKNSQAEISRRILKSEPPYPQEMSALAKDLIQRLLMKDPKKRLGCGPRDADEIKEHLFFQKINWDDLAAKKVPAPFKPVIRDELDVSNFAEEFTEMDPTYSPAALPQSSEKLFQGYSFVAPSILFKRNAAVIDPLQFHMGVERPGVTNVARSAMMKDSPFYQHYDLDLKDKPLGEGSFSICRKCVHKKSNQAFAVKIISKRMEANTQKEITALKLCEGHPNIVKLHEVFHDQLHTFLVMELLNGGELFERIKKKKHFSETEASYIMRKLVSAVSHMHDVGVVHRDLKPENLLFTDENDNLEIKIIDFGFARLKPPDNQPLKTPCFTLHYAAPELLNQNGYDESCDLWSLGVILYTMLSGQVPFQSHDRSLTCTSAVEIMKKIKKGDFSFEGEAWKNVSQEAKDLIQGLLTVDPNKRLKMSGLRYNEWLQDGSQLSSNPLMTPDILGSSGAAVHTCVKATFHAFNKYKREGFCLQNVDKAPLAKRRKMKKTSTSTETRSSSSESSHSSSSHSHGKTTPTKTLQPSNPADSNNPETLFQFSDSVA
Chain of Cyclin-dependent kinase 11A (Q9UQ88 whole entry): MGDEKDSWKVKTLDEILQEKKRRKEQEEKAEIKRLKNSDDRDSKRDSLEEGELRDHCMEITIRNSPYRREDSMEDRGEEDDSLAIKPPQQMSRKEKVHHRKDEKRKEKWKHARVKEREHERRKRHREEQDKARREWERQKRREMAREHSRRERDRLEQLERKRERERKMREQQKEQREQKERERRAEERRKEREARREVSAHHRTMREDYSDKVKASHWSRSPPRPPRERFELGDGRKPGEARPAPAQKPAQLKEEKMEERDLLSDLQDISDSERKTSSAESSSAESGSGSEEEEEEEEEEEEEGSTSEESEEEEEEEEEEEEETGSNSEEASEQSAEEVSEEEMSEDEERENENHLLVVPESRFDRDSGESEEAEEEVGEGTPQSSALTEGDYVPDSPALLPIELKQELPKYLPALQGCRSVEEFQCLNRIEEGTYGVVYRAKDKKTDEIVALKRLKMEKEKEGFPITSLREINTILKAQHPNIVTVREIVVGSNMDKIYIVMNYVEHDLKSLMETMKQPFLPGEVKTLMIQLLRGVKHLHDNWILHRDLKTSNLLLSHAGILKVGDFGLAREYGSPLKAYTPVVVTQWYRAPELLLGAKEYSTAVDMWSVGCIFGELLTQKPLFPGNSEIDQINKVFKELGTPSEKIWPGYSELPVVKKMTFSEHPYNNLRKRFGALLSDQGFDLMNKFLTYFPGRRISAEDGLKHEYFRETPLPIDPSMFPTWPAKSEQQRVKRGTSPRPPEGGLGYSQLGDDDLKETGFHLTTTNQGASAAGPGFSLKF
Chain of D(3) dopamine receptor (Homo sapiens) (P35462 whole entry): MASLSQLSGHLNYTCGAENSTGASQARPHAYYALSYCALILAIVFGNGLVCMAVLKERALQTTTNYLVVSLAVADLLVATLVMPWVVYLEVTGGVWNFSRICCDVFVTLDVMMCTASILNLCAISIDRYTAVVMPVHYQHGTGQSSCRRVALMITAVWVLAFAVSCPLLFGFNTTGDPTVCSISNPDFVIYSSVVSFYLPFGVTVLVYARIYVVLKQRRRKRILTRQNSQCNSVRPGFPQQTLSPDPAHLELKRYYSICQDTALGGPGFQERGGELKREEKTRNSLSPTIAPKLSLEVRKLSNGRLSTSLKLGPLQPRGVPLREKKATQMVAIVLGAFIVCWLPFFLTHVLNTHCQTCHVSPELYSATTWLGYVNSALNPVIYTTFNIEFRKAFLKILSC
Chain of Serine/threonine-protein kinase PLK1 (P53350 whole entry): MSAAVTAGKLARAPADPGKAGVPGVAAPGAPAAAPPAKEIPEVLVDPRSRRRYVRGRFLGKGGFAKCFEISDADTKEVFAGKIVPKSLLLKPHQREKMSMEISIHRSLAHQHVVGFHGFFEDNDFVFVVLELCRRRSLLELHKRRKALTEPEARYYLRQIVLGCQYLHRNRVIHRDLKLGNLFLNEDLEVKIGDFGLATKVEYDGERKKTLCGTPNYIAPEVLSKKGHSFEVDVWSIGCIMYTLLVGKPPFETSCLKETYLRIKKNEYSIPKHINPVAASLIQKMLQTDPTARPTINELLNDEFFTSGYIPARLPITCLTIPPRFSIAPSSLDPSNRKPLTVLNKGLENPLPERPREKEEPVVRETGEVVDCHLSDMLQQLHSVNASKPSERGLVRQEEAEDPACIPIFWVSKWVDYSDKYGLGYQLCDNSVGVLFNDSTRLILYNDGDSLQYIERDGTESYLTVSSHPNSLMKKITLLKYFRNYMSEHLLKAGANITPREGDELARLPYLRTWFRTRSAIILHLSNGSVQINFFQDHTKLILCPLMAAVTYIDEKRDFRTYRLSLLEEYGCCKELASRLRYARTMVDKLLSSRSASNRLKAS
Chain of Serine/threonine-protein kinase 32B (Q9NY57 whole entry): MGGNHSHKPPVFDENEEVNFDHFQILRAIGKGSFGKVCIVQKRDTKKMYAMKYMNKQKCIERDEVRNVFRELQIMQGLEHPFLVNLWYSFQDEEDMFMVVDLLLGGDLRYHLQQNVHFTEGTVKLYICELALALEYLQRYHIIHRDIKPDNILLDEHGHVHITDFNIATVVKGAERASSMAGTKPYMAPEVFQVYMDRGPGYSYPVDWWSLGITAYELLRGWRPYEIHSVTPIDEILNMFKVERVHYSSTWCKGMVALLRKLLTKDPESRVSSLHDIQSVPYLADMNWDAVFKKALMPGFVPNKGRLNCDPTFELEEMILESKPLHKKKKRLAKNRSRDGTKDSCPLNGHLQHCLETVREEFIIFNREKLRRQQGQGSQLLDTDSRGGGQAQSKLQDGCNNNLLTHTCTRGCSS

SMILES	pIC50 [1]	pIC50 [2]	pIC50 (Ephrin type-A receptor 5)	inhibition [3]	pIC50 [4]	pIC50 [5]	pIC50 [6]	pIC50 [7]	inhibition [8]	pIC50 [9]	pIC50 [10]	pIC50 [11]	pIC50 [12]	pIC50 [13]	pIC50 [14]	pIC50 [15]	pIC50 [16]	pIC50 [17]	pIC50 [18]	pIC50 [19]	further results
CN1C(=O)[C@@H](N2CCc3cn(Cc4ccccc4)nc3C2=O)COc2ccccc21 [TP-030-1]	6.00	6.00	6.00	0%	6.00	6.00	6.00	6.00	-4%	6.00	6.00	6.00	6.00	6.00	6.00	6.00	6.00	6.00	6.00	6.00	pIC50 [20]: 6.00; pIC50 [21]: 6.00; pIC50 [22]: 6.00; pIC50 [23]: 6.00; pIC50 [24]: 6.00; pIC50 [25]: 6.00; pIC50 [26]: 6.00; pIC50 [27]: 6.00; pIC50 [28]: 6.00; inhibition [29]: -2%; pIC50 [30]: 6.00; pIC50 [31]: 6.00; pIC50 (Insulin receptor): 6.00; pIC50 [32]: 6.00; inhibition [33]: 3%; pIC50 [34]: 6.00; pIC50 [35]: 6.00; inhibition [36]: 8%; pIC50 [37]: 6.00
CN1C(=O)[C@@H](N2CCc3cn(CC4CCS(=O)(=O)CC4)nc3C2=O)COc2ccccc21 [TP-030n]	6.00	6.00	6.00	-6%	6.00	6.00	6.00	6.00	9%	6.00	6.00	6.00	6.00	6.00	6.00	6.00	6.00	6.00	6.00	6.00	pIC50 [20]: 6.00; pIC50 [21]: 6.00; pIC50 [22]: 6.00; pIC50 [23]: 6.00; pIC50 [24]: 6.00; pIC50 [25]: 6.00; pIC50 [26]: 6.00; pIC50 [27]: 6.00; pIC50 [28]: 6.00; inhibition [29]: 7%; pIC50 [30]: 6.00; pIC50 [31]: 6.00; pIC50 (Insulin receptor): 6.00; pIC50 [32]: 6.00; inhibition [33]: 3%; pIC50 [34]: 6.00; pIC50 [35]: 6.00; inhibition [36]: 4%; pIC50 [37]: 6.00
